Marks after values point to notes of the source that are not given here.
How the values were obtained:
human skin explants = assay: Antipollution activity on human skin explants (MDA assay, morphology); conditions: for MDA concentration: 2 mg per explant topical
Method: This study was performed to evaluate the antipollution activity of a cosmetic product though its effect against free radicals on normal skin. A mixture of pollutants and heavy metals was used to mimic the harmful effects of an environmental pollution (like fumes, smoke . . . ). Explants were used as a skin model in this experiment as a good model of human skin.
Pieces of human skin (27 explants) were prepared from an abdominal biopsy removed from a healthy subject during cosmetic reductive surgery. They were placed in BEM medium at 37° C. and 5% CO2. The tested EPSS were applied on the surface of epidermis (topical treatment) at the indicated concentrations (2 mg per explant). They were applied the first day (Day 0) and after one, two, three and four days (Day 1, Day 2, Day 3 and Day 4).
At Day 4, 30 μL of a mixture of heavy metals (Table XII) and hydrocarbon was applied on a paper disk and immediately placed on identified explants.
At Day 0 and Day 5, 3 explants of each batch were removed and fixed in Bouin's liquid for morphological observation. After 48 hours in Bouin medium, explants were dehydrated, embedded in paraffin and stained in Masson's Trichrome. The MDA assay (Malondialdehyde, a stable product from the radical alteration) was performed in culture medium of Day 3, 24 h after irradiation to quantify the efficiency of products against free radicals generated by pollutants.

[1] = system: intracellular lipid peroxides of irradiated keratinocytes; assay: Lipid peroxides in UV-irradiated keratinocytes (C11-Fluor probe, flow cytometry); type: cell-based, human; conditions: 50 μM; UVB 210 mJ/cm^2
Method: This study was performed to evaluate the effect of EPSs of the invention on the relative quantification of the amount of lipid peroxides (LP) (degradation of skin lipids) in human cells exposed or not to UVA+UVB irradiation. The evaluation was obtained by using a specific fluorescent probe and fluorescence flow cytometry analysis. This method offers a great sensitivity because the fluorescence of each cell is measured and numerous cells are evaluated (10000 cells per experimental condition).
Keratinocytes were pre-cultivated in complete SFM medium up to 100% of confluence. The culture medium was then replaced with assay medium containing or not the tested EPSS or the reference and the cells were incubated at 37° C. and 5% CO2 for 24 h. After incubation, a specific probe, fluorescent analogue of lipids (C11-Fluor) and the tested EPS or the references were incorporated and the cells were incubated at 37° C. and 5% CO2 for 45 minutes. The probe was then eliminated by rinsing with culture medium. The washing medium was replaced with culture medium containing the tested EPSs or the references. Untreated controls were carried out in parallel. The cells were irradiated at 210 mJ/cm^2 UVB. […] The fluorescence parameters were measured by flow cytometry with a FACSArray™ cytometer driven by the FACSArray™ system software (Becton-Dickinson) on 10 000 individual cells (no cell population selection). […]

[2] = system: SkinEthic reconstructed human epidermis; assay: Epidermal lipid synthesis (14C-acetate incorporation, TLC) in reconstructed epidermis; type: cell-based; conditions: 10^−6M in culture medium (systemic), 72 h
Method: This study was performed to evaluate the effect of EPSs of the invention on lipid synthesis. Phospholipids (cellular membranes) and neutral lipids (including epidermis specific lipids) were measured separately using thin layer chromatography. SkinEthic™ reconstructed human epidermis was used for model, its composition being close to normal human epidermis.
The epidermal tissues were placed in 24-well plates and cultivated for 12 h in SkinEthic™ medium. The medium was then replaced by fresh medium and the tested EPSS were applied on the surface of epidermis (topical treatment), at the indicated concentrations. Three control epidermises were untreated and three reference epidermises were treated with the retinoic acid, a known stimulant of total skin lipids, in the culture medium (systemic treatment). All treatments were performed in triplicate and cultivated for 72 hours in total. After 24 h treatment, the culture medium was replaced by labelling medium (0.225 μCi/wells of [^14C] acetate) and the epidermises were treated. The labelling was carried out during a 48-hour incubation period. The Radioactive marker used was [2-14C]-Acetic acid sodium salt, Amersham CFA14 (2.04 Gbq/mmol, 55 mCi/mmol). The epidermises were washed in PBS solution and were dissociated. Then, cells were lysed by treatment with perchloric acid at 0.5 M on ice. Lipids were extracted by methanol/chloroform (2:1) and phase separation was performed by addition of PBS and chloroform after neutralisation in accordance with the procedure described by Bligh and Dyer. The radioactivity was quantified by incorporation into organic phase (lipids) with liquid scintillation (LKB 1210 Rackbeta) after chloroform evaporation. The organic phases were dried under nitrogen and thin layer chromatography (TLC; plates Merck K60) was performed by using two solvent systems: chloroform/methanol/water for Phospholipids (50:18:2.6) or hexane/ether/acetic acid for Neutral lipids (15:5.6:0.19). The various metabolites were quantified by performing a direct count of the radioactivity of the various spots on TLC plates with Phosphorlmager Cyclone™ and Multigauge software (Fujifilm).

filaggrin (FLG) mRNA = assay: RT-QPCR gene expression in human keratinocytes: filaggrin; type: cell-based; conditions: Table VIII (first step), 24 h
Method: (§1) This assay was performed in order to measure the effects of the EPSs on the induction of mRNA coding for differentiation proteins (filaggrin, loricrin, involucrin) and for stratum corneum tryptic enzyme involved in desquamation (kallikrein 5, 6 and 7). The relative expression of the selected markers was assayed using the “real time quantitative polymerase chain reaction” technology (RT-QPCR).
(§2) Keratinocytes were pre-cultivated in culture medium. At confluence, the culture medium was changed into assay medium (SFM without EGF and pituitary extract) containing or not (control) the test compound and the cells were incubated for 24 h at 37° C. and 5% CO2. At the end of the experiment, the cells were washed in PBS buffer and immediately frozen at −80° C. with 300 μl per well of Tri-reagent.
(§3) Primers couples allowing the amplification of a specific Polymerase Chain Reactions (PCR) product from each selected marker were used: Liver glyceraldehyde 3-phosphate dehydrogenase (G3PDH) was used as a reference marker in this experiment. The total RNA extraction was performed by Tri-Reagent™ according to the protocol. […]
(§4) Initially, the modulation of gene expression was evaluated on six EPSs at the first concentration (Table VIII). As a second step, it was evaluated on four EPSs at three concentrations (Table IX).

loricrin (LOR) mRNA = assay: RT-QPCR gene expression in human keratinocytes: loricrin; type: cell-based; conditions: Table VIII (first step), 24 h
Method: as §1, §2, §3, §4

[3] = system: kallikrein 6 (KLK6, neurosin) mRNA; assay: RT-QPCR gene expression in human keratinocytes: KLK6; type: cell-based; conditions: Table VIII (first step), 24 h
Method: as §1, §2, §3, §4

[4] = system: kallikrein 7 (KLK7, stratum corneum chymotrypsic enzyme) mRNA; assay: RT-QPCR gene expression in human keratinocytes: KLK7; type: cell-based; conditions: Table VIII (first step), 24 h
Method: as §1, §2, §3, §4

kallikrein 5 (KLK5) mRNA = assay: RT-QPCR gene expression in human keratinocytes: KLK5; type: cell-based; conditions: Table VIII (first step), 24 h
Method: as §1, §2, §3, §4

involucrin (INV) mRNA = assay: RT-QPCR gene expression in human keratinocytes: involucrin; type: cell-based; conditions: Table VIII (first step), 24 h
Method: as §1, §2, §3, §4

[5] = system: senescent human fibroblasts; assay: Hyaluronic acid synthesis by senescent human fibroblasts (ELISA), with or without TGFβ; type: cell-based; conditions: for HA / HA % of control: 72 h
From the text: This study has been performed in order to evaluate the effects of the EPSs on the synthesis of hyaluronic acid by senescent human fibroblasts. […] These senescent cells are obtained by subcultures of normal dermal fibroblasts and a senescent phenotype is obtained from the 12th passage.
This effect was attributed to an increase in sensitivity of cells to EGF. Based on this observation for EGF, a similar situation could exist for other factors like TGFβ. TGFβ has the ability to trigger HA synthesis. It has been observed however, that older cells become desensitized to TGFβ. Two types of effects of EPSS have thus been tested: their direct effect on the production of HA and their possibility to restore sensitivity of the cells to TGFβ.
Senescent fibroblasts were pre-cultivated for 24 hours until confluence. Then, the culture medium was removed and replaced by assay medium containing or not (control), the tested EPSS alone, TGFβ alone or the mix of tested EPSS with TGFβ. The cells were then cultivated for 72 hours. At the end of the incubation, the hyaluronic acid concentration was evaluated in the supernatant by a standard ELISA assay according to the manufacturer's procedures (R&D Systems DY3614) and cell viability was evaluated by using a standard MTT incorporation assay.

human keratinocytes = assay: Overall desquamation/differentiation gene expression profile in human keratinocytes; type: cell-based; conditions: 24 h
Method: as §1, §2, §3, §4

[6] = skin explants without contaminant
[7] = culture with TGFβ section, TGFβ alone 1 · 10^−5 g/L (reference of this section)
[8] = culture without TGFβ section, TGFβ alone 1 · 10^−5 g/L

Cc1c(C)c2c(c(C)c1O)CC[C@@](C)(CCC[C@H](C)CCC[C@H](C)CCCC(C)C)O2 [α tocopherol]
% pollution (human skin explants; skin explants + contaminant): 24.13%
% protection (human skin explants; skin explants + contaminant): 75.9%
antipollution activity (conclusion of MDA assay) (human skin explants; skin explants + contaminant): reduced pollutants activity
MDA concentration (human skin explants; skin explants + contaminant (heavy metals and hydrocarbon)): 544.93 pmol/mL
% pollution (human skin explants; [6]): 0.00%
MDA concentration (human skin explants; [6]): 392.28 pmol/mL

COc1ccc(O)c(C(C)(C)C)c1 [BHA]
% protection (intracellular lipid peroxides) [1]: 76%

CC1=C(/C=C/C(C)=C/C=C/C(C)=C/C(=O)O)C(C)(C)CCC1 [Retinoic acid]
Ceramides and cerebrosides (Cera/Cere) synthesis [2]: 85* % Control
Cholesterol (C) synthesis [2]: 77* % Control
Esterified Fatty Acids (EFA) synthesis [2]: 133 % Control
Free Fatty Acids (FFA) synthesis [2]: 76 % Control
Phospholipids (PL) synthesis [2]: 105 % Control
Sphingomyelin (SM) synthesis [2]: 106 % Control
Sulfate Cholesterol (CSO4) synthesis [2]: 92 % Control
Total Lipids (TL) synthesis [2]: 175** % Control
Total Lipids (TL) synthesis ([2]; listed as retinoic acid): 175 % Control
FLG expression (control = 100) (filaggrin (FLG) mRNA; 10^−7M): 35
LOR expression (control = 100) (loricrin (LOR) mRNA; 10^−7M): 29
KLK6 expression (control = 100) ([3]; 10^−7M): 315
KLK7 expression (control = 100) ([4]; 10^−7M): 268
KLK5 expression (control = 100) (kallikrein 5 (KLK5) mRNA; 10^−7M): 146
INV expression (control = 100) (involucrin (INV) mRNA; 10^−7M): 79

TGFβ
increase of hyaluronic acid synthesis ([5]; TGFβ at 10 ng/ml): 4 folds
HA [5, 7]: 16.05 µg/mL
HA % of control [5, 7]: 100%
HA [5, 8]: 11.73 µg/mL
HA % of control [5, 8]: 473** %

[Ca+2].[Cl-].[Cl-] [CaCl2]
FLG expression (control = 100) (filaggrin (FLG) mRNA; 1.5 mM): 125
LOR expression (control = 100) (loricrin (LOR) mRNA; 1.5 mM): 98
KLK6 expression (control = 100) ([3]; 1.5 mM): 110
KLK7 expression (control = 100) ([4]; 1.5 mM): 291
KLK5 expression (control = 100) (kallikrein 5 (KLK5) mRNA; 1.5 mM): 207
desquamation/differentiation gene expression profile (human keratinocytes): pro differentiation profile
INV expression (control = 100) (involucrin (INV) mRNA; 1.5 mM): 282

Reference: US20110150795A1, “COSMETIC COMPOSITIONS COMPRISING EXOPOLYSACCHARIDES DERIVED FROM MICROBIAL MATS, AND USE THEREOF” (Innovactiv Inc., priority 2008, published 2011)
